Source: patent US12479927B2, “Compounds comprising cleavable linker and uses thereof” (priority 2017, dated 2025)
Non-standard residues stand in square brackets, D forms with d. Residues, ends and D or L forms follow the SMILES beside them. Dolaproine = CO[C@@H]([C@@H]1CCCN1)[C@@H](C)C(=O)O; Dil = CC[C@H](C)[C@H](NC)[C@@H](CC(=O)O)OC; NMeV = CN[C@H](C(=O)O)C(C)C

How the values were obtained:
[1] = tested on: KB cancer cells; assay: cells; type: cell-based; conditions: MTT; 72 hours, 96 hours, or 144 hours of incubation; read-out: KB cell IC50
Protocol: KB cancer cells were collected and seeded in 24-well plates at a density of 30,000 cells per well in 2 mL of medium, and cultured for 24 hours. Then, the serial dilutions of compound C-1 obtained in Example 108 were treated from 30 nM to 0.0096 nM, the serial dilutions of compound C-2 obtained in Example 109 were treated from 1000 nM to 0.32 nM, serial dilutions of the compound C-3 obtained in Example 110 and the compound C-7 obtained in Example 114 were treated from 25 nM to 0.0016 nM, and serial dilutions of the drug MMAF-OMe were treated from 10 nM to 0.0097 nM. The serial dilutions of compounds C-5 and C-6 obtained in Example 112 and Example 113 were treated from 100 nM to 0.0001 nM, and the serial dilutions of drug seco-DUBA were treated from 100 nM to 0.001 nM. Serial dilutions of the compounds C-4 and C-9 obtained in Example 111 and Example 116 were treated from 1000 nM to 0.001 nM, and the serial dilutions of drug CBI dimer were treated by from 10 nM to 0.00001 nM. Serial dilutions of the compound C-8 obtained in Example 115 and the drug CBI-indole were treated from 100 nM to 0.0001 nM. After 72 hours, 96 hours, or 144 hours of incubation, 0.2 mL of 3-(4,5-dimethylthiazol-2-yl)-2,5-diphenyltetrazolium bromide (MTT) dye, dissolved in PBS buffer solution (5 mg/mL), was added to each well of the plates. The formazans formed by reduction of the MTT dye by mitochondrial oxidoreductases in the living cells were dissolved in DMSO, and measured using the absorbance at 550 nm.

[2] = tested on: KB cancer cells; assay: In vitro analysis of protein-drug conjugate, KB; type: cell-based; conditions: 96 hours, read-out: KB cell IC50
Protocol: (§1) KB cancer cells were collected and seeded in 24-well plates at a density of 30,000 cells per well in 2 mL of medium, and cultured for 24 hours. Then, the serial dilutions of compound C-1 obtained in Example 108 were treated from 30 nM to 0.0096 nM, the serial dilutions of compound C-2 obtained in Example 109 were treated from 1000 nM to 0.32 nM, serial dilutions of the compound C-3 obtained in Example 110 and the compound C-7 obtained in Example 114 were treated from 25 nM to 0.0016 nM, and serial dilutions of the drug MMAF-OMe were treated from 10 nM to 0.0097 nM. The serial dilutions of compounds C-5 and C-6 obtained in Example 112 and Example 113 were treated from 100 nM to 0.0001 nM, and the serial dilutions of drug seco-DUBA were treated from 100 nM to 0.001 nM. […] The formazans formed by reduction of the MTT dye by mitochondrial oxidoreductases in the living cells were dissolved in DMSO, and measured using the absorbance at 550 nm.
(§2) KB, SKBR-3, BT-474, NCI-N87 cancer cells were seeded in 96-well plates at a density of 2,000 to 8,000 cells per well in 100 μL of medium, and cultured for 24 hours. […] Experiments were performed in a similar manner to Test Example 3 to quantify living cells 96 hours later, and results are shown in Tables 4 and 5 below.

[3] = tested on: SKBR-3 cancer cells; assay: In vitro analysis of antibody-drug conjugate, SKBR-3; type: cell-based; conditions: 96 hours
Protocol: as §1, §2

[4] = tested on: BT-474 cancer cells; assay: In vitro analysis of antibody-drug conjugate, BT-474; type: cell-based; conditions: 96 hours
Protocol: as §1, §2

[5] = tested on: NCI-N87 cancer cells; assay: In vitro analysis of antibody-drug conjugate, NCI-N87; type: cell-based; conditions: 96 hours
Protocol: as §1, §2

[6] = tested on: NCI-N87 cells; assay: In vivo efficacy, tumor xenograft; design: species or system mice; conditions: male BALB/c nu/nu, single i.v. injection day 0, 2 mg/kg
Protocol: In vivo efficacy of antibody-drug conjugates of the invention was measured by tumor xenograft studies in mice. Male BALB/c nu/nu were injected subcutaneously in the right flank with suspensions of 1×10^6 of NCI-N87 cells respectively in PBS. Mice were randomized into study groups when tumors reached approximately 100 mm^3. T-DM1 (2 mg/kg), D-1-AB, D-2-AB, D-8-AB, and D-18-AB conjugates (0.5 mg/kg or 2 mg/kg) were given i.v. (single injection on treatment day 0). All treatment groups consisted of 6 to 10 animals per group, and tumor size was monitored twice weekly using caliper measurement. The tumor mass was calculated as volume=(width×width×length)/2.

[7] = molecular target: T1, Escherichia coli β-glucuronidase (Escherichia coli, UniProt P05804); assay: Enzymatic cleavage assay, Method 3; type: biochemical; conditions: Escherichia coli β-glucuronidase (Sigma G7396) in PBS buffer, PBS pH 7.4, 37° C., HPLC, read-out: TG release t1/2(min)
T1 construct: purchased Sigma G7396
Protocol: Method 3) Escherichia coli β-glucuronidase
The compounds A-1 and A-5 of the present invention were dissolved in DMSO, and mixed with PBS buffer solution to prepare a solution having a concentration of 500 μM (5% DMSO). MPS used as a standard material was prepared as a solution to have a concentration of 500 μM in PBS buffer solution. […] Then, 14 μL of enzyme solution (1 mg/mL) was added thereto, thereby preparing an enzyme reaction solution in a total amount of 700 μL. The reaction mixture was incubated at 37° C. Escherichia coli β-glucuronidase enzyme (Sigma G7396) was used in the reaction mixture.

[8] = Plasma stability test, mouse; type: in vitro ADME; conditions: 37° C., up to 7 days, 300 μM
Protocol: (§3) The compound A-1 obtained in Example 58 and MPS used as a standard material were dissolved in DMSO to make a concentration of 60 mM. Then, each of human plasma (Biochemed 752R-SC-PMG), mouse plasma (Biochemed 029-APSC-MP), rat plasma (Biochemed 031-APSC-MP), and beagle dog plasma (Biochemed 013-APSC-MP) were mixed with the compound and MPS to make a final concentration of 300 μM (final 0.5% DMSO). The resulting plasma mixtures were incubated at 37° C. water bath. Aliquots were taken before the reaction and on 1 day, 2 days, 4 days, and 7 days after the reaction, wherein each aliquot was 300 μL. To complete the reaction, two-fold volumes of acetonitrile was added, followed by brief vortexing, and centrifugation for plasma protein precipitation. Each supernatant obtained after centrifugation was collected and analyzed by HPLC. The compound A-1 was detected and quantitated in the mouse, rat, beagle dog, and human plasma for up to 7 days (>95%).

[9] = Plasma stability test, rat; type: in vitro ADME; conditions: 37° C., up to 7 days, 300 μM
Protocol: as §3

[10] = Plasma stability test, dog; type: in vitro ADME; conditions: beagle dog plasma, 37° C., up to 7 days, 300 μM
Protocol: as §3

[11] = Plasma stability test, human; type: in vitro ADME; conditions: 37° C., up to 7 days, 300 μM
Protocol: as §3

[12] = Chemical stability in PBS; type: physicochemical; conditions: PBS (pH 7.4), room temperature, light blocked, 7 days incubation
Protocol: The compound A-1 obtained by Example 58 was dissolved in DMSO, and mixed with PBS (pH 7.4) buffer solution to prepare a solution having a concentration of 500 μM (5% DMSO). MPS used as a standard material was prepared as a solution to have a concentration of 500 μM in PBS buffer solution. 420 μL of the buffer solution, and 140 μL of the compound A-1 solution and 140 μL of MPS solution were mixed, thereby preparing a reaction mixture in a total amount of 700 μL. The reaction mixture was incubated at room temperature while blocking the light. The reaction mixture was aliquoted on 0 day before the reaction and on 1 day, 2 days, 4 days, and 7 days after the reaction, wherein each aliquot amount was 70 μL. Then, the remaining compound A-1, MPS, and liberated tyrosine were quantitated by HPLC analysis.

[13] = molecular target: Escherichia coli β-galactosidase (Escherichia coli, UniProt P00722); assay: in vitro; conditions: recombinant enzyme, pH 7.4
Protocol: Method 1. Escherichia coli β-galactosidase
MPS used as a standard material was dissolved in PBS buffer solution to make 500 uM solution. […] This was followed by the addition of enzyme solution (14 μL of 1 mg/mL). When comparing with human β-galactosidase, 21 μL of enzyme solution (1 mg/mL) was added to achieve the same molar concentration, and the compound of the present invention and MPS each having an amount of 140 μL and […] of the buffer solution (pH 7.4) were mixed. The resulting reaction mixture was incubated at 37° C. Escherichia coli β-galactosidase enzyme (Sigma G4155) was used in the reaction mixture. The enzyme reaction solution was aliquoted at 0 min before the reaction and at a predetermined time after the reaction, respectively, wherein each aliquot was 70 μL. Then, the remaining compound of the present invention or MPS, and a material liberated by the enzyme reaction were quantitatively analyzed by HPLC.

[14] = tested on: Escherichia coli β-galactosidase + β-glucuronidase; assay: Enzymatic cleavage assay, Method 4; type: biochemical; conditions: PBS pH 7.4, 37° C., HPLC, read-out: TG release t1/2(min)
Protocol: Method 4 Escherichia coli β-Galactosidase+β-Glucuronidase
The compound A-5 of the present invention was dissolved in DMSO, and mixed with PBS buffer solution to prepare a solution having a concentration of 500 μM (5% DMSO). MPS used as a standard material was prepared as a solution to have a concentration of 500 μM in PBS buffer solution. […] Then, 14 μL of 1 mg/mL of β-galactosidase (Sigma G4155) and 14 μL of 1 mg/mL of β-glucuronidase (Sigma G7396) were added thereto, thereby preparing an enzyme reaction mixture in a total amount of 700 μL. The reaction mixture was incubated at 37° C.

T1 sequence (P05804 whole entry): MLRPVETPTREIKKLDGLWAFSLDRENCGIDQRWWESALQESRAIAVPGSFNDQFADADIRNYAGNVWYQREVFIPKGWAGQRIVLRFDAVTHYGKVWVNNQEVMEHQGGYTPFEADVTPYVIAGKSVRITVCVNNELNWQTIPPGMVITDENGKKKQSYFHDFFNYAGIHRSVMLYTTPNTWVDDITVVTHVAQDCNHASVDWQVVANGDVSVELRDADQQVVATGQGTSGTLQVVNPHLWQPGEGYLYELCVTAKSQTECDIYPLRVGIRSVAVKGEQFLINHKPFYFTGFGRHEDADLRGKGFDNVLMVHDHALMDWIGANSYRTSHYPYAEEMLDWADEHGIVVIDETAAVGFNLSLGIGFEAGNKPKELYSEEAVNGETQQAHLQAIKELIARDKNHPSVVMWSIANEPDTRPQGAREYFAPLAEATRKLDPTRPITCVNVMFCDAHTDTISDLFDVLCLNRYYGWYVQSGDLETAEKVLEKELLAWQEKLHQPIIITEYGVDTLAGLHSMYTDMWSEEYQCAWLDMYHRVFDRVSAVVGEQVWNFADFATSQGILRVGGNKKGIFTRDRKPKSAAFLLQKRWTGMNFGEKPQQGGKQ
Escherichia coli β-galactosidase, sequence (P00722 2-1024): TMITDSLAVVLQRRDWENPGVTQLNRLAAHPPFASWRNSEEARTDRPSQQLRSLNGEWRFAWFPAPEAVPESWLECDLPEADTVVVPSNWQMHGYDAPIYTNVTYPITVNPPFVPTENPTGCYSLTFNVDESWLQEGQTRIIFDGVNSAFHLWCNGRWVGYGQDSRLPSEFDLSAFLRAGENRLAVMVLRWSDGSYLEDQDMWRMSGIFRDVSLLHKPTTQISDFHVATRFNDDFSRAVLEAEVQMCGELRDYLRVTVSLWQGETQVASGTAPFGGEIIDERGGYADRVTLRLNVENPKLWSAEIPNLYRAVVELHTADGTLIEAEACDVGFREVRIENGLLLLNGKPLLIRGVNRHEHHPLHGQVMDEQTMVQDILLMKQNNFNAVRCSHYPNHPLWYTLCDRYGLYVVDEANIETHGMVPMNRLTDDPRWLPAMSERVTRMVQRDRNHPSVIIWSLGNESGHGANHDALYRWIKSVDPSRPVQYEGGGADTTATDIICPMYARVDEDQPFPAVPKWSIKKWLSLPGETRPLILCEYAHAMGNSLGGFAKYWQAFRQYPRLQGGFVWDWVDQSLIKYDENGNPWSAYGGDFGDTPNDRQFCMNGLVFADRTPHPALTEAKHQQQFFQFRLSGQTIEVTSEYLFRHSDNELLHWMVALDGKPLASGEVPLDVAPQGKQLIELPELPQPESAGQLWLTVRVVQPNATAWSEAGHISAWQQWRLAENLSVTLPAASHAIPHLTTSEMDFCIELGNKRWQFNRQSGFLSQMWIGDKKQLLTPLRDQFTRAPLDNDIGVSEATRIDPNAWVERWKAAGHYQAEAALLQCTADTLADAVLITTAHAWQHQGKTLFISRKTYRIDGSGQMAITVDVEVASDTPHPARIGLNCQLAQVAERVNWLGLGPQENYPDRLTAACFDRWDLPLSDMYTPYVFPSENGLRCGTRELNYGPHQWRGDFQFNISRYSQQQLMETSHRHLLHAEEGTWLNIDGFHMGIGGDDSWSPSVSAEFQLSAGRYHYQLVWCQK

## CC[C@H](C)[C@@H]([C@@H](CC(=O)N1CCC[C@H]1[C@H](OC)[C@@H](C)C(=O)N[C@@H](Cc1ccccc1)C(=O)OC)OC)N(C)C(=O)[C@@H](NC(=O)[C@@H](NC)C(C)C)C(C)C [MMAF-OMe] (H-[NMeV]V[Dil][Dolaproine]F-OMe)
[1]
  IC50: 0.35 ± 0.07 nM
[2]; values marked * (asterisk not explained)
  IC50: 0.16 nM
[2]; values without asterisk
  IC50: 0.44 nM

## T-DM1
[3]
  IC50: 0.02 nM
[4]
  IC50: 0.18 nM
[5]
  IC50: 0.02 nM
[6]
  activity compared with the conjugates of the invention: less active

## CC(C)(C)OC(=O)NC(Cc1ccc(OS(=O)(=O)Oc2ccccc2O[C@@H]2O[C@H](CO)[C@H](O)[C@H](O)[C@H]2O)cc1)C(=O)O (stereo partly shown) [Compound A-1]
[7]
  half-life at 100 μM: 0.43 ± 0.11 min
[8]
  compound detected and quantitated in plasma: > 95%
[9]
  compound detected and quantitated in plasma: > 95%
[10]
  compound detected and quantitated in plasma: > 95%
[11]
  compound detected and quantitated in plasma: > 95%
[12]
  compound present (remaining): > 95%

## CC(C)(C)OC(=O)N[C@H](Cc1ccc(OS(=O)(=O)Oc2ccccc2O[C@@H]2O[C@H](COC3O[C@H](C(=O)O)[C@@H](O)[C@H](O)[C@H]3O)[C@H](O)[C@H](O)[C@H]2O)cc1)C(=O)O (stereo partly shown) [Compound A-5]
[13]
  half-life at 100 μM: < 5 min
[7]
  half-life at 100 μM: < 5 min
[14]
  half-life at 100 μM: < 5 min
